In patent US8088819B2, “Derivatives of substituted 3-phenyl-1-(phenylthienyl)propan-1-ones and of 3-phenyl-1-(phenylfuranyl) propan-1-ones, preparation and use” (priority 2006, dated 2012) one finds EC50, Emax and melting point data, which are given here for eleven molecules.

pEC50: −log10 of the molar value.

Data set [1] deals with T1, hPPARgamma (Homo sapiens, UniProt P37231).
T1 construct: expressed in transfected cells; host or cells: COS-7 (monkey kidney fibroblasts)
T1 sequence (P37231 238-503 limits assumed): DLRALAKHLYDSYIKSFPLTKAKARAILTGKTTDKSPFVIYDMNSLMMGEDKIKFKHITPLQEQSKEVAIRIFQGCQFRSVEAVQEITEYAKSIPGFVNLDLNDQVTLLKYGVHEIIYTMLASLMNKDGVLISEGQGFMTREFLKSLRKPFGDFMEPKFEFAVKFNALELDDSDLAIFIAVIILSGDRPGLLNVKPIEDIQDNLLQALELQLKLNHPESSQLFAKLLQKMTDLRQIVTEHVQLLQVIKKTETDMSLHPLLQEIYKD
As to the kind of experiment: PPAR activation: Gal4-hPPARγ chimera luciferase transactivation in COS-7 cells, Method 1. In kind it is cell-based. Conditions: COS-7, 24 h; for Emax: maximum percentage response relative to the reference rosiglitazone, read-out: hPPARgamma % max. The protocol:
(§1) The activation of the PPARs was evaluated in vitro on a line of monkey kidney fibroblasts (COS-7) by measuring the transcriptional activity of chimeras constituted of the DNA binding domain of the Gal4 transcription factor of yeast and the ligand binding domain of the various PPARs. The compounds were tested at doses between 10^−5 and […] on the chimeras Gal4-PPARα, γ or δ, and the corresponding EC50 values were determined.
(§2) The COS-7 cells were obtained from the ATCC and were cultivated in DMEM medium supplemented with 10% (v/v) of fetal calf serum, 100 U/ml of penicillin (Gibco, Paisley, UK) and 2 mM of L-glutamine (Gibco, Paisley, UK). The cells were incubated at 37° C. in a humid atmosphere containing 5% CO2.
(§3) The plasmids Gal4(RE)_TkpGL3, pGal4-hPPARα, pGal4-hPPARγ, pGal4-hPPARδ and pGal4-φ are described in the literature (Raspe E et al., 1999). The constructs pGal4-hPPARα, pGal4-hPPARγ and pGal4-hPPARδ were obtained by cloning DNA fragments amplified by PCR corresponding to the DEF domains of the human nuclear receptors PPARα, PPARγ and PPARδ in the pGal4-φ vector.
(§4) The COS-7 cells in suspension were transfected with 150 ng of DNA per well, with a pGal4-PPAR/Gal4(RE)_TkpGL3 ratio of 1/10, in the presence of 10% fetal calf serum. The cells were seeded in 96-well plates (4×10^4 cells/well) and then incubated at 37° C. for 24 hours. Activation with the test compounds is carried out for 24 h at 37° C. in serum-free medium. At the end of the experiment, the cells were lysed and the luciferase activity was determined using the Steady-Lite™ HTS (Perkin Elmer) following the supplier's recommendations.

For data set [2], the target named is T2, hPPARdelta (Homo sapiens, UniProt Q03181).
T2 construct: expressed in transfected cells; host or cells: COS-7 (monkey kidney fibroblasts)
T2 sequence (Q03181 211-439 limits assumed): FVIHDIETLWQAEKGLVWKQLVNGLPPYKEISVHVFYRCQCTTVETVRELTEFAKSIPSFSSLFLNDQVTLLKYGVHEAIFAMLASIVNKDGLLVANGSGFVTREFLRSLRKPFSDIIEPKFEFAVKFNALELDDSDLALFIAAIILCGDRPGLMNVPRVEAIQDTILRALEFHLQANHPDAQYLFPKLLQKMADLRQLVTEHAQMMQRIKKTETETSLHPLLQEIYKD
As to the kind of experiment: PPAR activation: Gal4-hPPARδ chimera luciferase transactivation in COS-7 cells, Method 1. The data set is classed as cell-based. Conditions: COS-7, 24 h; for Emax: maximum percentage response relative to the reference GW501516, read-out: hPPARdelta % max. The protocol: as §1, §2, §3, §4

In data set [3] the target is T3, hPPARalpha (Homo sapiens, UniProt Q07869).
T3 construct: expressed in transfected cells; host or cells: COS-7 (monkey kidney fibroblasts)
T3 sequence (Q07869 239-466 limits assumed): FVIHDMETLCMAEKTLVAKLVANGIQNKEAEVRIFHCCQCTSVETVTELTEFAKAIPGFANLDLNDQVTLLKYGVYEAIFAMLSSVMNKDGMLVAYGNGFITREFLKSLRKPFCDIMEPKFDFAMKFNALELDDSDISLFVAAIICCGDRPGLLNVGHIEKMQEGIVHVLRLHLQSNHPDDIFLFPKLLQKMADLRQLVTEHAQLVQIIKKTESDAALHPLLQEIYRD
As to the kind of experiment: PPAR activation: Gal4-hPPARα chimera luciferase transactivation in COS-7 cells, Method 1. Conditions: COS-7, 24 h; for Emax: maximum percentage response relative to the reference phenofibric acid, read-out: hPPARalpha % max. The data set is classed as cell-based. The protocol: as §1, §2, §3, §4

Consider `CC(C)(Oc1ccc(CCC(=O)c2ccc(-c3ccc(C(F)(F)F)cc3)s2)cc1Cl)C(=O)O` [Compound 19, 2-(2-chloro-4-(3-oxo-3-(5-(4-(trifluoromethyl)phenyl)thien-2-yl)-propyl)phenoxy)-2-methylpropanoic acid], for which the melting point fell in the range of 136 to 137 °C. Moreover, in data set [1], the pEC50 is 6.74 and the Emax is 27%. Besides, in data set [2], the pEC50 was 7.82 and the Emax is 85%. In data set [3], the pEC50 was 9.00 and the Emax came out at 47%.

In turn, `CC(C)(Oc1ccc(CCC(=O)c2ccc(-c3ccc(C(F)(F)F)cc3)s2)c(Cl)c1)C(=O)O` [Compound 21, 2-(3-chloro-4-(3-oxo-3-(5-(4-(trifluoromethyl)phenyl)thien-2-yl)-propyl)phenoxy)-2-methylpropanoic acid] returned a melting point of 104 to 106 °C. Further, in data set [1], the pEC50 is 7.10 and the Emax is 63%. In addition, in data set [2], the pEC50 is 8.10 and the Emax came to 97%. Further, in data set [3], the pEC50 is 7.77 and the Emax is 50%.

The molecule `CC(C)(Oc1ccc(CCC(=O)c2ccc(-c3ccc(C(F)(F)F)cc3)s2)cc1F)C(=O)O` [Compound 23, 2-(2-fluoro-4-(3-oxo-3-(5-(4-(trifluoromethyl)phenyl)thien-2-yl)propyl)phenoxy)-2-methylpropanoic acid] gave a melting point of 150 to 151 °C. Besides, in data set [1], the pEC50 was 6.40 and the Emax was 49%. In addition, in data set [2], the pEC50 is 7.80 and the Emax was determined as 95%. In data set [3], the Emax amounted to 48%.

In turn, `CCC(Oc1ccc(CCC(=O)c2ccc(-c3ccc(C(F)(F)F)cc3)s2)cc1F)C(=O)O` (stereo not shown) [Compound 29, 2-(2-fluoro-4-(3-oxo-3-(5-(4-(trifluoromethyl)phenyl)thien-2-yl)-propyl)phenoxy)butanoic acid] showed a melting point of 119 to 120 °C. Also, in data set [1], the pEC50 was 5.90 and the Emax was determined as 65%. In data set [2], the pEC50 is 7.43 and the Emax stood at 88%. Also, in data set [3], the pEC50 is 8.70 and the Emax was 56%.

For `CCC(Oc1ccc(CCC(=O)c2ccc(-c3ccc(C(F)(F)F)cc3)s2)cc1Br)C(=O)O` (stereo not shown) [Compound 32, 2-(2-bromo-4-(3-oxo-3-(5-(4-(trifluoromethyl)phenyl)thien-2-yl)propyl)phenoxy)butanoic acid], the melting point is 126 to 128 °C. Also, in data set [1], the pEC50 is 6.68 and the Emax stood at 67%. Besides, in data set [2], the pEC50 was 7.44 and the Emax amounted to 75%. In data set [3], the pEC50 was 8.10 and the Emax stood at 52%.

In turn, `O=C(O)COc1ccc(CCC(=O)c2ccc(-c3ccc(C(F)(F)F)cc3)s2)cc1Br` [Compound 34, 2-(2-bromo-4-(3-oxo-3-(5-(4-(trifluoromethyl)phenyl)thien-2-yl)propyl)phenoxy)acetic acid] yielded a melting point of 180 to 182 °C. Also, in data set [1], the Emax came out at 37%. Also, in data set [2], the pEC50 is 6.94 and the Emax came out at 95%. Further, in data set [3], the pEC50 was 7.22 and the Emax amounted to 61%.

Turning to `CC(C)(Oc1ccc(CCC(=O)c2ccc(-c3ccc(C(F)(F)F)cc3)s2)cc1Br)C(=O)O` [Compound 36, 2-(2-bromo-4-(3-oxo-3-(5-(4-(trifluoromethyl)phenyl)thien-2-yl)propyl)phenoxy)-2-methylpropanoic acid], the melting point is 102 to 104 °C. Moreover, the Emax in data set [1] was determined as 63%. Also, in data set [2], the pEC50 was 8.05 and the Emax came out at 85%. In addition, in data set [3], the pEC50 was 8.30 and the Emax amounted to 47%.

`CC(C)(Oc1ccc(CCC(=O)c2ccc(-c3ccc(OC(F)(F)F)cc3)s2)c(Cl)c1Cl)C(=O)O` [Compound 44, 2-(2,3-dichloro-4-(3-oxo-3-(5-(4-(trifluoromethoxy)phenyl)thien-2-yl)propyl)phenoxy)-2-methylpropanoic acid] registered a melting point of 135 to 136 °C. Besides, in data set [1], the negative logarithm of the EC50 (pEC50) is 7.00 and the Emax turned out to be 46%. In data set [2], the pEC50 is 7.57 and the Emax stood at 109%. Moreover, in data set [3], the pEC50 was 7.80 and the Emax worked out at 54%.

Consider `CC(C)(Oc1ccc(CCC(OCc2ccccc2)c2cc(-c3ccc(C(F)(F)F)cc3)cs2)c(Cl)c1Cl)C(=O)O` (stereo not shown) [Compound 61, 2-(4-(3-(benzyloxy)-3-(4-(4-(trifluoromethyl)phenyl)thien-2-yl)propyl)-2,3-dichlorophenoxy)-2-methylpropanoic acid], for which the melting point fell in the range of 58 to 59 °C. Also, in data set [1], the pEC50 was 7.52 and the Emax came out at 78%. In data set [2], the pEC50 is 8.22 and the Emax turned out to be 101%. Further, in data set [3], the pEC50 is 6.23 and the Emax turned out to be 42%.

Consider `CCC(Oc1ccc(CCC(=O)c2ccc(-c3ccc(C(F)(F)F)cc3)s2)cc1)C(=O)O` (stereo not shown) [Compound 65, 2-(4-(3-oxo-3-(5-(4-(trifluoromethyl)phenyl)thien-2-yl)propyl)-phenoxy)butanoic acid], for which the melting point lay within 116 to 117 °C. Further, the Emax in data set [1] amounted to 73%. Further, in data set [2], the pEC50 was 6.96 and the Emax was determined as 79%. Besides, in data set [3], the pEC50 is 8.40 and the Emax was 52%.

Regarding `O=C(O)COc1ccc(CCC(=O)c2ccc(-c3ccc(C(F)(F)F)cc3)s2)cc1` [Compound 69, 2-(4-(3-oxo-3-(5-(4-(trifluoromethyl)phenyl)thien-2-yl)propyl)-phenoxy)acetic acid], the melting point lay within 182 to 183 °C. In data set [1], the pEC50 was 5.45 and the Emax amounted to 15%. Further, in data set [2], the pEC50 is 6.53 and the Emax stood at 90%. For the same molecule, in data set [3], the pEC50 is 7.48 and the Emax was found to be 61%.
